pIC50: −log10 of the molar value.
What was measured:
Staphylococcus aureus [1] = assay: (§1) Maximal inhibition of the aminoglycoside on Staphylococcus aureus IF-2 binding to fMet-tRNA(fMet)
Staphylococcus aureus [2] = assay: (§2) Denaturation rate constant of IF2 in the presence of aminoglycoside
[3] = (§3) Inhibitory activity against the displacement of Picogreen from fMet-tRNA(fMet) by the aminoglycoside; design: species or system Staphylococcus aureus
[4] = Inhibitory activity of the aminoglycoside on Staphylococcus aureus IF-2 binding to fMet-tRNA(fMet)
Staphylococcus aureus [5] = assay: (§4) Maximal inhibition against the displacement of Picogreen from fMet-tRNA(fMet) by the aminoglycoside
Staphylococcus aureus [6] = assay: as §2; type: functional
Staphylococcus aureus [7] = assay: as §3; type: functional
Staphylococcus aureus [8] = assay: Inhibitory activity of the aminoglycoside on Staphylococcus aureus IF-2 binding to fMet-tRNA (fMet); type: functional
Staphylococcus aureus [9] = assay: as §4; type: functional
Staphylococcus aureus [10] = assay: as §1; type: functional

Structure (SMILES)	inhibition (Staphylococcus aureus [1])	Denaturation rate constant (Staphylococcus aureus [2])	pIC50 [3]	pIC50 [4]	inhibition (Staphylococcus aureus [5])	Denaturation rate constant (Staphylococcus aureus [6])	pIC50 (Staphylococcus aureus [7])	pIC50 (Staphylococcus aureus [8])	inhibition (Staphylococcus aureus [9])	Inhibition (Staphylococcus aureus [10])
NCC[C@H](O)C(=O)N[C@@H]1C[C@H](N)[C@@H](O[C@H]2O[C@H](CN)[C@@H](O)[C@H](O)[C@H]2O)[C@H](O)[C@H]1O[C@H]1O[C@H](CO)[C@@H](O)[C@H](N)[C@H]1O [AMIKACIN]	43%	0.093 min⁻¹	6.80	5.99	85%					
NC[C@@H]1O[C@H](O[C@H]2[C@@H](O)[C@H](O[C@@H]3[C@@H](O)[C@H](N)C[C@H](N)[C@H]3O[C@H]3O[C@H](CN)[C@@H](O)[C@H](O)[C@H]3N)O[C@@H]2CO)[C@H](N)[C@@H](O)[C@@H]1O [FRAMYCETIN]	76%	0.095 min⁻¹	8.05	7.30	100%					
CNC1C(O)C(OC2C(N)CC(N)C(OC3OC(CN)CCC3N)C2O)OCC1(C)O (configuration not stated) [GENTAMICIN C1A]	66%			6.35						
CN[C@@H]1C[C@H](N)[C@@H](O)[C@H](O[C@H]2O[C@H](CO)[C@H](O)[C@@H]3O[C@@]4(O[C@@H]23)O[C@H]([C@H](N)CO)[C@H](O)[C@H](O)[C@H]4O)[C@H]1O [HYGROMYCIN]	84%	0.096 min⁻¹	6.56	4.18	81%					
NC[C@@H]1O[C@@H](O[C@H]2[C@H](O)[C@@H](O[C@H]3O[C@H](CO)[C@@H](O)[C@H](N)[C@H]3O)[C@H](N)C[C@@H]2N)[C@@H](O)[C@H](O)[C@H]1O [KANAMYCIN A]	61%	0.092 min⁻¹	7.62	4.75	92%					
CN[C@@H]1[C@@H](O)[C@@H](O[C@@H]2[C@@H](O)[C@H](O[C@H]3OC(CN)=CC[C@H]3N)[C@@H](N)C[C@H]2N)OC[C@]1(C)O [SISOMICIN]						0.087 min⁻¹	8.15	8.15	100%	75%
CN[C@@H]1[C@H](O[C@H]2[C@H](O[C@H]3[C@H](O)[C@@H](O)[C@H](N=C(N)N)[C@@H](O)[C@@H]3N=C(N)N)O[C@@H](C)[C@]2(O)C=O)O[C@@H](CO)[C@H](O)[C@H]1O [STREPTOMYCIN]	43%	0.094 min⁻¹	5.75	5.83	95%					
